Laboratory results published in US20180085371A1, “COMBINATION OF PANOBINOSTAT AND RUXOLITINIB IN THE TREATMENT OF CANCER SUCH AS A MYELOPROLIFERATIVE NEOPLASM” (Novartis AG, priority 2011, published 2018).

Tested on: p-STAT5
Assay: PD marker p-STAT5 by IHC in spleen and bone marrow
Assay type: in vivo, mouse
Conditions: Compound A 60 mg/kg single agent or with Compound B 8 mg/kg
Method: The p-STAT5 PD marker of Compound A and Acetylated Histone H3 PD marker of Compound B were assessed in spleen and bone marrow. Briefly, the spleen was removed in total, weighed and placed on a dissection tray. The spleen was cut transverse in two halves and two equal pieces were taken from the middle parts using a scalpel. Spleen pieces were not allowed to exceed 3-4 mm in thickness. Spleen pieces were transferred into labeled histocassettes and immersion-fixed in neutral buffered formalin (NBF) 10% (v/v) at room temperature (pH 6.8-7.2) (J.T. Baker, Medite, Switzerland). Fixative volume was at least tenfold in excess compared to tissue volume. […]
For histological evaluation, BM cellularity was evaluated as hypercellularity (3+), normocellularity (2+), and hypocellularity (1+). Splenic architecture was evaluated as destroyed (1+) or preserved (0). Presence of myeloid, erythroid and adipocytes cells was evaluated as 0, 1+, 2+, 3+ based on cellularity. […] Whole slide automated quantitative assessment of p-STAT5-positive and -negative cell nuclei were performed using Definiens eCognition software (eCognition version XD 1.5, Definiens AG, Germany). The results were expressed as percent of positive p-STAT5 nuclei out of total nuclei. Staining of acetylated histone H3 was scored as 1+, 2+, 3+ based on staining intensity and number of positive cells.

N#CC[C@H](C1CCCC1)n1cc(-c2ncnc3[nH]ccc23)cn1 [Compound A, (R)-3-(4-(7H-pyrrolo[2,3-d]pyrimidin-4-yl)-1H-pyrazol-1-yl)-3-cyclopentylpropanenitrile]
p-STAT5 PD marker (IHC): clear reduction
